Data reported in patent publication US10159265B2, “Feed composition for reducing ruminant methanogenesis” (priority 2012, dated 2018).
“Also recorded” adds a separate entry of the source. Marks after values point to notes of the source that are not given here.

Assays:
[1] = tested on: "in vitro" rumen fluid culture; assay: Biogas production in "in vitro" rumen fluid culture (pressure meter); assay type: cell-based, calves; set-up: Average biogas production / Cumulative biogas production / Biogas production: unit not given here; conditions: Exp 1; for Average biogas production: average over doses and incubation times
Description: (§1) Two trials following an identical experimental protocol were designed to study the effect of different pure flavonoids on rumen fermentation using a simulatory “in vitro” system based on the experimental protocol described by Theodorou M K et al. (1994) Animal Feed Science and Technology, 48 (3), p. 185-197; Mauricio, R. M., et al. (1999) Animal Feed Science and Technology 79, 321-330.
Gas production was determined from a semi-automatic pressure meter, the relationship between pressure levels and the produced gas volume was previously calculated.
(§2) Rumen cannulated calves which received a mixed ration mainly composed of concentrate (90:10) were used as rumen fluid donor; feed composition is presented in Table 1. The inoculum was collected and filtered through two-layer surgical gauze and kept in thermo pots. Flavonoids (Table 2) plus 600 mg of concentrate (Table 1) and 60 mg of barley straw as the substrate were dosed by triplicate in preheated bottles (39° C.) and maintained under anaerobic conditions. Flavonoids isonaringin, neoeritrocin, poncirin were purchased from INDOFINE Chemical Company, Inc (USA). 10 ml of rumen fluid and 40 ml of incubation medium were added to the bottles (McDougall, El (1948) Studies on ruminant saliva. 1. The composition and output of sheep's saliva. Biochem J. 43(1) 99-109). Once the bottles were filled and the anaerobic condition was applied, the bottles were sealed and the incubation process was started in a hot water bath. […] Each sample was incubated in triplicate in two sets or batches.

Selenomonas ruminantium = assay: qPCR relative quantification of Selenomonas ruminantium; assay type: cell-based; conditions: 12 hours of incubation
Description: (§3) Rumen cannulated calves which received a mixed ration mainly composed of concentrate (90:10) were used as rumen fluid donor; feed composition is presented in Table 1. The inoculum was collected and filtered through two-layer surgical gauze and kept in thermo pots. Flavonoids (Table 2) plus 600 mg of concentrate (Table 1) and 60 mg of barley straw as the substrate were dosed by triplicate in preheated bottles (39° C.) and maintained under anaerobic conditions. Flavonoids isonaringin, neoeritrocin, poncirin were purchased from INDOFINE Chemical Company, Inc (USA). 10 ml of rumen fluid and 40 ml of incubation medium were added to the bottles (McDougall, El (1948) Studies on ruminant saliva. 1. The composition and output of sheep's saliva. Biochem J. 43(1) 99-109). Once the bottles were filled and the anaerobic condition was applied, the bottles were sealed and the incubation process was started in a hot water bath. Pressure readings were made at 2, 4, 6, 8, 12, 24, 36 and 48 hours. Each sample was incubated in triplicate in two sets or batches.
(§4) After 12 hours of incubation, one bottle (replicate) from each treatment was opened, pH was recorded and the bottle was sampled for volatile fatty acids (Jouany, J. P., 1982 Science des Aliments 2, 131-144), lactate (Taylor, K. A. C. C., 1996. Appl. Biochem. Biotechnol. Enzym. Eng. Biotechnol. 56, 49-58) and ammonia (Chaney, A. L., Marbach, E. P., 1962. Clin. Chem. 8, 130-132) analyses.
(§5) The environmental DNA was extracted using the technique proposed by Yu and Morrison (2004). Quantification of Streptococcus bovis, Megasphaera elsdenii and Selenomonas ruminantium DNA was done by qPCR using specific primers (Tajima, K. et al. 2001. Appl. Environ. Microb. 67, 2766-2774; Ouwerkerk, D., et al. 2002. J. Appl. Microbiol. 92, 753-758). Results were statistically analyzed using the PROC MIXED procedure of SAS statistical package (SAS, 2000, User's guide: Statistics, version 8 editions inst., Inc., Cary, N.C.). The least significant difference was used to compare the means. Differences between means in which P<0.05 were accepted as significant.

Streptococcus bovis = assay: qPCR relative quantification of Streptococcus bovis; assay type: cell-based; conditions: 12 hours of incubation
Description: as §3, §4, §5

[2] = tested on: methanogenic (archea) populations; assay: Methane production in "in vitro" rumen fluid culture; assay type: cell-based, calves; set-up: Average methane production / Accumulated methane production / Methane production / Cumulative methane production: unit not given here; conditions: Exp 1
From the text: as §1, §2
The effects of flavonoids substances on fermentation activity of certain archea populations which are theoretically responsible for the methane production were analyzed.
The experimental design allows determining whether the effect of flavonoids on methane reduction was derived from a general reduction in microbial activity and biogas production or contrarily flavonoid affects specifically on methanogenic (archea) populations. The presence of flavonoids in the culture medium reduced methane contribution in the total biogas production (P<0.05) although, again, the aforementioned impact was heterogeneous.

[3] = tested on: "in vitro" ruminal fluid cultures; assay: Ammonia (N-NH3) concentration in "in vitro" ruminal fluid cultures; assay type: cell-based, calves; conditions: for N-NH3 concentration, average (M): average over incubation times
From the text: as §1, §3, §4

[4] = tested on: "in vitro" ruminal fluid cultures; assay: Volatile fatty acid concentration and molar proportions in "in vitro" ruminal fluid cultures; assay type: cell-based, calves; conditions: for % Acetate, molar ratio, average (μ) / % Butyrate, molar ratio, average (μ) / % Propionate, molar ratio, average (M) / VFA concentration, average (μ): average over incubation times
From the text: as §1, §3
[…] P., 1982 Science des Aliments 2, 131-144), lactate (Taylor, K. A. C. C., 1996. Appl. Biochem. Biotechnol. Enzym. Eng. Biotechnol. 56, 49-58) and ammonia (Chaney, A. L., Marbach, E. P., 1962. Clin. Chem. 8, 130-132) analyses.

[5] = tested on: "in vitro" ruminal fluid culture; assay: Lactate concentration in "in vitro" ruminal fluid culture; assay type: cell-based, calves; conditions: 12 hours of incubation
From the text: as §1, §3, §4

Megasphaera elsdenii = assay: qPCR relative quantification of Megasphaera elsdenii; assay type: cell-based; conditions: 12 hours of incubation
Description: as §3, §4, §5

[6] = tested on: "in vitro" ruminal fluid cultures; assay: Ammonia (N-NH3) concentration in "in vitro" ruminal fluid cultures; assay type: cell-based, calves; conditions: 72 h
ruminal bacteria = assay: Bacterial DNA concentration by qPCR; assay type: cell-based, calves; conditions: 12 hours of incubation
Description: as §3, §4, §5

[7] = average over doses and incubation times
[8] = average over doses and incubation times, listed as neoeriocitrin

C[C@@H]1O[C@@H](O[C@H]2[C@H](Oc3cc(O)c4c(c3)O[C@H](c3ccc(O)c(O)c3)CC4=O)O[C@H](CO)[C@@H](O)[C@@H]2O)[C@H](O)[C@H](O)[C@H]1O [Neoeriocitrin]
Cumulative biogas production ([1]; 12 h incubation): 211.78
Cumulative biogas production ([1]; 24 h incubation): 259.11
Cumulative biogas production ([1]; 48 h incubation): 288.43
Cumulative biogas production ([1]; 72 h incubation): 307.80
Biogas production ([1]; dose 1, 0.2 g/kg DM): 277.08
Biogas production ([1]; dose 2, 0.5 g/kg DM): 256.47
Relative Quantification 2^(ΔΔCt) S. ruminantium (Selenomonas ruminantium): 0.79
Relative Quantification 2^(ΔΔCt) S. bovis (Streptococcus bovis): 0.62
Dosage effect on methane proportion of biogas ([2]; 500 vs. 200 mg/kg DM): tended to depress methane production
Accumulated methane production ([2]; 12 h): 29.65
Proportion of methane in the produced biogas ([2]; 12 h): 14.00
Accumulated methane production ([2]; 24 h): 37.03
Proportion of methane in the produced biogas ([2]; 24 h): 15.75
Accumulated methane production ([2]; 48 h): 41.74
Proportion of methane in the produced biogas ([2]; 48 h): 16.33
Accumulated methane production ([2]; 72 h): 45.18
Proportion of methane in the produced biogas ([2]; 72 h): 18.19
Average methane production [2, 7]: 38.40^a
Proportion of methane in the produced biogas [2, 7]: 16.07^a
Average methane production [2, 8]: increased
Proportion of methane in the produced biogas [2, 8]: significantly increased; also recorded: increased the methane proportion
Methane production ([2]; dose 1, 0.2 g/kg DM): 39.51
Proportion of methane in the produced biogas ([2]; dose 1, 0.2 g/kg DM): 15.96
Methane production ([2]; dose 2, 0.5 g/kg DM): 37.28
Proportion of methane in the produced biogas ([2]; dose 2, 0.5 g/kg DM): 16.17
N-NH3 concentration ([3]; 0 h (initial constant value)): 149.99 mg/L
N-NH3 concentration ([3]; 12 h): 186.19 mg/L
N-NH3 concentration, average (M) [3]: 227.84 mg/L
% Acetate, molar ratio ([4]; 0 h): 62.51 mol/100 mol
% Butyrate, molar ratio ([4]; 0 h): 9.07 mol/100 mol
% Propionate, molar ratio ([4]; 0 h): 20.03 mol/100 mol
A/P rate (acetate/propionate) ([4]; 0 h): 3.12
VFA concentration ([4]; 0 h (initial constant value)): 13.78 mmol/L
% Acetate, molar ratio ([4]; 12 h): 55.73 mol/100 mol
% Butyrate, molar ratio ([4]; 12 h): 11.84 mol/100 mol
% Propionate, molar ratio ([4]; 12 h): 26.77 mol/100 mol
A/P rate (acetate/propionate) ([4]; 12 h): 2.09
VFA concentration ([4]; 12 h): 39.75 mmol/L
% Acetate, molar ratio ([4]; 72 h): 56.21 mol/100 mol
% Butyrate, molar ratio ([4]; 72 h): 11.79 mol/100 mol
% Propionate, molar ratio ([4]; 72 h): 24.39 mol/100 mol
A/P rate (acetate/propionate) ([4]; 72 h): 2.31
VFA concentration ([4]; 72 h): 53.75 mmol/L
% Acetate, molar ratio, average (μ) [4]: 58.15 mol/100 mol
% Butyrate, molar ratio, average (μ) [4]: 10.90 ^b mol/100 mol
% Propionate, molar ratio, average (M) [4]: 23.73 ^a mol/100 mol
VFA concentration, average (μ) [4]: 35.76 mmol/L
% Propionate, molar ratio, average (M) ([4]; listed as neoeritrocin): 23.7 mol/100 mol
Lactate [5]: 122.5 mg/L
Relative Quantification 2^(ΔΔCt) M. elsdenii (Megasphaera elsdenii): 0.76 ^a
N-NH3 concentration [6]: 347.34 mg/L
Bacteria DNA (ruminal bacteria): 13.14 ^a μg/ml

COc1ccc([C@@H]2CC(=O)c3c(O)cc(O[C@@H]4O[C@H](CO[C@@H]5O[C@@H](C)[C@H](O)[C@@H](O)[C@H]5O)[C@@H](O)[C@H](O)[C@H]4O)cc3O2)cc1O [Hesperidin, hesperidin]
Cumulative biogas production ([1]; 12 h incubation): 187.19
Cumulative biogas production ([1]; 24 h incubation): 227.31
Cumulative biogas production ([1]; 48 h incubation): 261.28
Cumulative biogas production ([1]; 72 h incubation): 282.84
Average biogas production [1]: 239.65^cd
Average biogas production ([1]; listed as hesperidin): 239.6
Biogas production ([1]; dose 1, 0.2 g/kg DM): 239.91
Biogas production ([1]; dose 2, 0.5 g/kg DM): 239.4
Relative Quantification 2^(ΔΔCt) S. ruminantium (Selenomonas ruminantium): 0.74
Relative Quantification 2^(ΔΔCt) S. bovis (Streptococcus bovis): 0.58
Accumulated methane production ([2]; 12 h): 21.08
Proportion of methane in the produced biogas ([2]; 12 h): 11.26
Accumulated methane production ([2]; 24 h): 26.03
Proportion of methane in the produced biogas ([2]; 24 h): 12.40
Accumulated methane production ([2]; 48 h): 31.54
Proportion of methane in the produced biogas ([2]; 48 h): 16.43
Accumulated methane production ([2]; 72 h): 35.04
Proportion of methane in the produced biogas ([2]; 72 h): 16.55
Average methane production [2, 7]: 28.42^cd
Proportion of methane in the produced biogas [2, 7]: 14.16^cd
Average methane production ([2]; average over doses and incubation times, listed as hesperidin): not modified
Methane production ([2]; dose 1, 0.2 g/kg DM): 28.11
Proportion of methane in the produced biogas ([2]; dose 1, 0.2 g/kg DM): 14.05
Methane production ([2]; dose 2, 0.5 g/kg DM): 28.74
Proportion of methane in the produced biogas ([2]; dose 2, 0.5 g/kg DM): 14.27
N-NH3 concentration ([3]; 0 h (initial constant value)): 149.99 mg/L
N-NH3 concentration ([3]; 12 h): 187.36 mg/L
N-NH3 concentration, average (M) [3]: 220.15 mg/L
% Acetate, molar ratio ([4]; 0 h): 62.51 mol/100 mol
% Butyrate, molar ratio ([4]; 0 h): 9.07 mol/100 mol
% Propionate, molar ratio ([4]; 0 h): 20.03 mol/100 mol
A/P rate (acetate/propionate) ([4]; 0 h): 3.12
VFA concentration ([4]; 0 h (initial constant value)): 13.78 mmol/L
% Acetate, molar ratio ([4]; 12 h): 56.88 mol/100 mol
% Butyrate, molar ratio ([4]; 12 h): 10.41 mol/100 mol
% Propionate, molar ratio ([4]; 12 h): 27.22 mol/100 mol
A/P rate (acetate/propionate) ([4]; 12 h): 2.09
VFA concentration ([4]; 12 h): 38.25 mmol/L
% Acetate, molar ratio ([4]; 72 h): 56.04 mol/100 mol
% Butyrate, molar ratio ([4]; 72 h): 10.78 mol/100 mol
% Propionate, molar ratio ([4]; 72 h): 25.80 mol/100 mol
A/P rate (acetate/propionate) ([4]; 72 h): 2.17
VFA concentration ([4]; 72 h): 53.70 mmol/L
% Acetate, molar ratio, average (μ) [4]: 58.48 mol/100 mol
% Butyrate, molar ratio, average (μ) [4]: 10.08 ^ab mol/100 mol
% Propionate, molar ratio, average (M) [4]: 24.35 ^ab mol/100 mol
VFA concentration, average (μ) [4]: 35.25 mmol/L
Lactate [5]: 44.3 mg/L
Lactate ([5]; listed as hesperidin): tended to moderate the recorded increase
Relative Quantification 2^(ΔΔCt) M. elsdenii (Megasphaera elsdenii): 1.18 ^b
N-NH3 concentration [6]: 323.11 mg/L
Bacteria DNA (ruminal bacteria): 9.18 ^a μg/ml
